Consider two compounds from patent publication US20040029860A1, “Anti-proliferative drugs” (priority 2000, published 2004).

Like-named read-outs stand apart in the source and are kept apart here. A value given as a limit tells only on which side of the number the result lay.

The test system of assay [1] is human prostate (LN-CapAp). Put plainly: cell viability, prostate LN-Cap. Type of assay: cell-based. To be noted: Homo sapiens, LNCaP. The method, then:
The effect of trifluoperazine and flupentixol was studied in two cell-lines of human prostate cancer: androgen dependent (LN-Cap) and androgen independent (PC-3).
(§1) Cyclic antidepressants at varying concentrations (between 10PM and 100 μM) was applied to neuroblastoma SH-SY5T, 3LL lung carcinoma, prostate (LN-CapAp), melanoma B16, and cell viability was determined as described above.

The test system of a further assay is HaCat keratinocytes. Put plainly: keratinocyte viability, Neutral red, HaCat. Conditions: for IC50: Homo sapiens, HaCaT. Type of assay: cell-based, human. As for the experimental part:
(§2) The drugs were administered at concentrations within the range of 5-100 μM and cell viability was measured 24 hr post-administration by Neutral red staining. The efficiency of the agents against viability of the cell lines was evaluated also by comparison with two commonly used anticancer agents (Doxorubicin and 5-fluorouracil (5-FU)) at equimolar concentrations.

For a further assay, the system named is different cell-lines. Put plainly: mean IC50 over cell lines and therapeutic index.
Assay [2] deals with mouse melanoma B16 MDR cells. Put plainly: cell viability, melanoma B16 MDR. Type of assay: cell-based.
The subject of assay [3] is human neuroblastoma (SH-SY5T). Put plainly: cell viability, neuroblastoma SH-SY5T. It counts as cell-based. Conditions: for IC50: Homo sapiens. As for the experimental part:
The effect of paroxetine on primary tissue cultures was also evaluated. […] The viability of the cells after treatment with paroxetine was determined by neutral red (NR) technology 24 hr. post treatment.
as §1

A further assay has as its system mouse lung sarcoma (3LL). Put plainly: cell viability, lung 3LL. It counts as cell-based. To be noted: Mus musculus; Table 1B; read-out: Cell viability IC50 Lungs Sarcoma 3LL. The method, then:
In another experiment the effect of clotiapine at the same concentrations on the viability of mouse lung carcinoma (3LL) cells was determined.
as §1

Assay [4] concerns mouse Lewis lung carcinoma (3LL). Put plainly: in vivo effect on Lewis lung carcinoma (3LL) in mice. Conditions: 3LL inoculated C57 mice, i.p. daily, thioridazine 15 mg/kg, others 30 mg/kg. The method, then:
Female C57 black mice aged 4 weeks were used in order to evaluate the in vivo effect of cyclic psychotropic agents on tumor cells. In particular, animals were divided into 5 groups (6-8 mice each). Animals were inoculated with mouse Lewis lung carcinoma (3LL, 0.5 million each) by i.v. injection to the tail vein and then treated by i.p. injection daily for 3 weeks with the following different agents
(5) Paroxetine (30 mg/kg).
During the treatment period animals were inspected daily and their body weight registered twice a week. […] After the four weeks of treatment the mice were sacrificed and their lungs dissected and weighted.

For another assay, the system named is HaCat I5 keratinocytes. Put plainly: keratinocyte viability, Neutral red, HaCat I5. Type of assay: cell-based, human. The method, then: as §2
For assay [5], the system named is HaCat II-4RT keratinocytes. Put plainly: keratinocyte viability, Neutral red, HaCat II4. It counts as cell-based. Conditions: Homo sapiens. The method, then: as §2
In a further assay the test system is B16 melanoma cells. Put plainly: sensitization to doxorubicin, B16 melanoma cells. It counts as cell-based, mouse. To be noted: B16 melanoma cells, FIG. 6D.
Another assay deals with mouse melanoma (B-16). Put plainly: cell viability, melanoma B16. It counts as cell-based. To be noted: Mus musculus. As for the experimental part:
as §1

Another assay relates to human breast (MCF7). Put plainly: cell viability, breast MCF7. Type of assay: cell-based. To be noted: Table 1A.
A further assay has as its system rat glioblastoma (C6). Put plainly: cell viability, glioma C6. It counts as cell-based. Conditions: Rattus norvegicus; Table 1A.
In assay [6] the test system is Neuroblastoma cell line (SK-NSH). Put plainly: apoptosis by flow cytometry of propidium iodide stained cells. It counts as cell-based, human. To be noted: after 24 and 48 hours at 20 μM and higher; FIG. 7. The method, then: The percentage of apoptosis of the cells was determined by flow cytometry of propidium iodide stained cells using a fluorescence-activated cell sorter (FACScan) (Becton and Dickenson, Heidelberg, Calif.) equipped with an argon ion laser (an excitation wavelength, […]) and a doublet discrimination module (DDM). Lysis II (BD) software was used for data acquisition.
(In flow cytometry, cells or beads pass a laser one at a time.)

In assay [7] the test system is human neuroblastoma (SK-N-SH). Put plainly: cell viability (neutral red, Almar Blue, Hoechst dye), neuroblastoma SK-N-SH. Type of assay: cell-based. Conditions: Homo sapiens, SK-N-SH; Table 1A.
Assay [8] relates to rat new born myocytic culture. Put plainly: primary tissue culture, myocytic. Conditions: data not shown. Type of assay: cell-based.
The subject of a further assay is p53 mutant. Put plainly: p53 mutant expression, western blotting in glioma C6. Type of assay: cell-based, rat. To be noted: 60 μM, FIG. 8. For orientation: In western blotting, separated proteins are transferred to a membrane and probed.
For the next assay, the system named is Colon Ht-29. Put plainly: cell viability, colon Ht-29. Conditions: Homo sapiens, Table 1A. It counts as cell-based.
Assay [9] has as its system mouse-selected embryo, neuronal culture. Put plainly: primary tissue culture, neuronal. Type of assay: cell-based. Conditions: data not shown.
Setting [10] is: Homo sapiens, HaCaT, mean of the determinations, read-out: IC50 HaCat I5 ME.
Setting [11] is: Homo sapiens, HaCaT, single determinations, read-out: IC50 HaCat I5.

`Fc1ccc([C@@H]2CCNC[C@H]2COc2ccc3c(c2)OCO3)cc1` [Paroxetine]: the IC50 is 16 µM in [1] (Table 1B, read-out: Cell viability IC50 Prostate LN-Cap); 12.4 µM with different cell-lines (read-out: IC50 Mean +/− SD); 15 to 20 µM in [2] (B16, Example 9, FIG. 9, read-out: IC50 levels, transformed (MDR) B16 melanoma); 11 µM in assay [2] (Table 1B, read-out: Cell viability IC50 Melanoma B16 MDR); 15 µM in assay [3] (Table 1B, read-out: Cell viability IC50 Neuroblastoma SH-SY5T); less than 10 µM in the assay on mouse lung sarcoma (3LL). Moreover, the IC50 with HaCat I5 keratinocytes (setting [10]) is 21 µM; with HaCat I5 keratinocytes (setting [11]), 21 µM; in [5], 12 µM; with mouse melanoma (B-16) (Example 9, read-out: IC50 levels, wild type B16 mouse melanoma), 15 to 20 µM; in the assay with mouse melanoma (B-16) (Table 1B, read-out: Cell viability IC50 Melanoma 16B), 12 µM. Besides, in the assay with HaCat keratinocytes (5-100 μM, 24 hr, Neutral red, FIG. 13A, 15A), the “cell viability HaCat (in words)” value was “effective in reducing cell viability”. Moreover, in [3] (10 μM to 100 μM, neutral red, 24 hr post treatment, vs primary mouse brain and selected neurons, FIG. 1), the “sensitivity of neuroblastoma cells compared to primary tissue (viability)” value was “increased sensitivity”. In [4], the “survival rate during four weeks of treatment” value is recorded as 5/6. Besides, the “lungs weight / tumor size compared to control group” value in assay [4] (FIG. 5) is listed as “effective in reducing tumor size”. For the same compound, the “cell viability HaCat I5 (in words)” value in the assay with HaCat I5 keratinocytes (5-100 μM, 24 hr, Neutral red, FIG. 13B, 15B) was “effective in reducing cell viability”. Further, in the assay with B16 melanoma cells, the “potentiation of doxorubicin (in words)” value was “same effect”.

Take `OCCN1CCN(CCCN2c3ccccc3Sc3ccc(Cl)cc32)CC1` [Perphenazine]: the IC50 came to 18 µM in [1] (Table 1A, read-out: Viability IC50 Prostate LN-Cap); 24 µM in the assay on HaCat keratinocytes (mean of the determinations, read-out: IC50 HaCat ME); 24 µM in the assay on HaCat keratinocytes (single determinations, read-out: IC50 HaCat); 20 ± 2.7 µM in the assay with different cell-lines (read-out: IC50 Mean ± SD); 21 µM with human breast (MCF7); 15 µM in assay [3] (Table 1A, read-out: Viability IC50 Neuroblastoma SH-SY5T). Further, the IC50 in the assay with rat glioblastoma (C6) is 22 µM; in assay [7], 21 µM; in [8], 35 to 55 µM; in the assay with HaCat I5 keratinocytes (setting [10]) it was 26 µM; with HaCat I5 keratinocytes (setting [11]), 30 µM; with HaCat I5 keratinocytes (single determinations, read-out: IC50 HaCat I5), 22 µM. For the same compound, the IC50 with Colon Ht-29 came out at 22 µM; in [9] it was 60 µM; in the assay on mouse melanoma (B-16) (Table 1A, read-out: Viability IC50 Melanoma B16), 23 µM. Besides, the “apoptosis (in words)” value in assay [6] was “mortal and dramatic apoptosis”. Also, the “mean decrease in expression of p53 mutant” value in the assay on p53 mutant came to 30%.
